From patent US20060257322A1, “Pharmaceutical agents that contain fluoroalkyl-containing metal complexes and epothilones” (priority 2005, published 2006) come the findings set out here.

Series [1] is classed as in vivo, hairless mice. Particulars: for Relative animal weights: day 0 (about 30-35 g) normalized to 1. The procedure: (§1) A549 lung tumors were induced in hairless mice (4×10^6 cells/30 μl of full medium). Animal weights and tumor surface areas/volumes were determined, and in this case, the tumor surface area or the tumor volume (based on an ellipsoid of revolution) was calculated. Length and width of the tumor were measured with vernier calipers. After reaching the size of a pea, the treatment was begun.
(§2) • (a) 20 mmol of Gd/l of the Gd complex compound as mentioned in Example 1 or 3 (as a comparison solution=Blank reading) • (b) 1.5 mmol/l of the epothilone as mentioned in Example 1 or 3, in aqueous hydroxypropyl-β-cyclodextrin solution (prior art) (For the production of formulations in the prior art, see WO 99/07692 and WO 00/4902 1) • (c) Formulation of Example 1 or 3 (formulation according to the invention) Dosages: • (a) 100 μmol of Gd/kg of body weight • (b) 11 μmol/kg or 18 μmol/kg of body weight • (c) 100 μmol of Gd/kg+11 (or 18) μmol of epothilone/kg of body weight (corresponds to the ratio in the formulation of Example 1 or 3).
(§3) The animal weights and tumor sizes were measured over a period of 20 days after intravenous administration.

A further series relates to A549 lung tumors. It counts as in vivo, hairless mice. As to conditions: day 0 normalized to 1. How it is done:
as §1, §2, §3

[2] abbreviates: Day 5, 11 μmol of epothilone/kg of body weight i.v. (formulations: plus 100 μmol of Gd/kg).
[3] abbreviates: Day 5, 18 μmol of epothilone/kg of body weight i.v. (formulations: plus 100 μmol of Gd/kg).
The mark [4] stands for this setting: Day 11, 11 μmol of epothilone/kg of body weight i.v. (formulations: plus 100 μmol of Gd/kg).
Where [5] appears, read: Day 11, 18 μmol of epothilone/kg of body weight i.v. (formulations: plus 100 μmol of Gd/kg).
[6] abbreviates: Day 15, 11 μmol of epothilone/kg of body weight i.v. (formulations: plus 100 μmol of Gd/kg).
[7] abbreviates: Day 15, 18 μmol of epothilone/kg of body weight i.v. (formulations: plus 100 μmol of Gd/kg).
Setting [8] is: Day 20, 11 μmol of epothilone/kg of body weight i.v. (formulations: plus 100 μmol of Gd/kg).
The mark [9] stands for this setting: Day 20, 18 μmol of epothilone/kg of body weight i.v. (formulations: plus 100 μmol of Gd/kg).
[10] abbreviates: first days after substance administration, 11 μmol of epothilone/kg of body weight i.v.
Where [11] appears, read: first days after substance administration, 18 μmol of epothilone/kg of body weight i.v.

Where “and” joins values, the source holds several entries; their conditions need not be identical. Equal values may be shown once. Read-outs that look alike come from different tables or passages of the source.

In the case of `Cc1nc(/C=C(\Cl)[C@@H]2C[C@@H]3O[C@]3(C)CCC[C@H](C)[C@H](O)[C@@H](C)C(=O)C(C)(C)[C@@H](O)CC(=O)O2)cs1` [Epothilone C, (1S,3S(Z),7S,10R,11S,12S,16R)-7,11-Dihydroxy-3-(1-chloro-2-(2-methyl-4-thiazolyl)ethenyl)-8,8,10,12,16-pentamethyl-4,17-dioxabicyclo[14.1.0]heptadecane-5,9-dione], in series [1] (mouse, in vivo, iv), the “Relative animal weights (in words)” value was “small weight loss”. The “Relative tumor surface area” value in the series with A549 lung tumors (setting [2]) is listed as 1.1 ± 0.1; in the series with A549 lung tumors (setting [3]), 1.1 ± 0.1; in the series with A549 lung tumors (setting [4]) it was 1.4 ± 0.3; in the series on A549 lung tumors (setting [5]), 1.3 ± 0.3; in the series with A549 lung tumors (setting [6]), 1.5 ± 0.3; in the series with A549 lung tumors (setting [7]), 1.6 ± 0.3. The “Relative tumor surface area” value in the series with A549 lung tumors (setting [8]) and in the series on A549 lung tumors (setting [9]) was 1.5 ± 0.2 in each case.
Regarding `C#CC[C@H]1C(=O)C(C)(C)[C@@H](O)CC(=O)O[C@H](/C(F)=C/c2csc(C)n2)C/C=C(/C)CCC[C@H](C)[C@@H]1O` [Epothilone L, (4S,7R,8S,9S,13(Z),16S(Z))-4,8-Dihydroxy-16-(1-fluoro-2-(2-methylthiazol-4-yl)ethenyl)-7-(prop-2-in-1-yl)-1-oxa-5,5,9,13-tetramethyl-cyclohexadec-13-ene-2,6-dione], the Relative animal weights in series [1] (setting [2]) was found to be 0.93; in series [1] (setting [3]), 0.94; in series [1] (setting [4]), 0.96; in series [1] (setting [5]), 0.95; in series [1] (setting [6]) it was 0.97; in series [1] (setting [7]), 0.97. Also, the Relative animal weights in series [1] (setting [8]) stood at 0.98; in series [1] (setting [9]) it was 0.96. In addition, the “Relative animal weights (in words)” value in series [1] (setting [10]) and in series [1] (setting [11]) was “small weight loss” throughout. Also, the “Relative tumor surface area” value in the series on A549 lung tumors (setting [2]) was determined as 1.1 ± 0.1; in the series with A549 lung tumors (setting [3]), 1.1 ± 0.1; with A549 lung tumors (setting [4]) it was 1.3 ± 0.1; in the series with A549 lung tumors (setting [5]), 1.3 ± 0.2; in the series on A549 lung tumors (setting [6]), 1.5 ± 0.2; in the series on A549 lung tumors (setting [7]) it was 1.5 ± 0.2. The “Relative tumor surface area” value came out at 1.5 ± 0.2 in the series on A549 lung tumors (setting [8]) and 1.5 ± 0.1 in the series with A549 lung tumors (setting [9]).
`C#CC[C@H]1C(=O)C(C)(C)[C@@H](O)CC(=O)O[C@H](/C(F)=C/c2coc(C)n2)C/C=C(/C)CCC[C@H](C)[C@@H]1O` [Epothilone N, (4S,7R,8S,9S,13(Z),16S(Z))-4,8-Dihydroxy-16-(1-fluoro-2-(2-methyloxazol-4-yl)ethenyl)-7-(prop-2-in-1-yl)-1-oxa-5,5,9,13-tetramethyl-cyclohexadec-13-ene-2,6-dione]: the Relative animal weights in series [1] (setting [2]) worked out at 0.94; in series [1] (setting [4]), 0.97; in series [1] (setting [6]), 0.98; in series [1] (setting [8]), 0.96. Besides, in series [1] (setting [10]), the “Relative animal weights (in words)” value is given as “small weight loss”. The “Relative tumor surface area” value was 1.1 ± 0.1 in the series on A549 lung tumors (setting [2]), 1.2 ± 0.2 in the series on A549 lung tumors (setting [4]), 1.5 ± 0.3 in the series with A549 lung tumors (setting [6]) and 1.6 ± 0.4 in the series on A549 lung tumors (setting [8]).
On to `CC[C@H]1C(=O)C(C)(C)[C@@H](O)CC(=O)O[C@H](/C(F)=C/c2ccccn2)C/C=C(/C)CCC[C@H](C)[C@@H]1O` [Epothilone G, 4S,7R,8S,9S,13(Z),16S(Z)-4,8-Dihydroxy-16-(1-fluoro-2-(2-pyridyl)ethenyl)-7-ethyl-1-oxa-5,5,9,13-tetramethyl-cyclohexadec-13-ene-2,6-dione], for which the Relative animal weights in series [1] (setting [2]) is on record as 0.94; in series [1] (setting [3]), 0.945; in series [1] (setting [4]), 0.97; in series [1] (setting [5]), 0.97; in series [1] (setting [6]) it was 0.95; in series [1] (setting [7]), 0.97. The Relative animal weights in series [1] (setting [8]) is on record as 0.96; in series [1] (setting [9]), 0.98. Further, the “Relative animal weights (in words)” value in series [1] (setting [10]) and in series [1] (setting [11]) was “small weight loss” in each case. The “Relative tumor surface area” value was found to be 1.1 ± 0.1 in the series with A549 lung tumors (setting [2]); 1.1 ± 0.1 with A549 lung tumors (setting [3]); 1.3 ± 0.1 in the series on A549 lung tumors (setting [4]); 1.3 ± 0.4 with A549 lung tumors (setting [5]); 1.5 ± 0.3 with A549 lung tumors (setting [6]); 1.5 ± 0.3 in the series on A549 lung tumors (setting [7]). The “Relative tumor surface area” value in the series with A549 lung tumors (setting [8]) and in the series on A549 lung tumors (setting [9]) was 1.6 ± 0.2 each time.
Take `C=CC[C@H]1C(=O)C(C)(C)[C@@H](O)CC(=O)O[C@H](/C(C)=C/c2csc(C)n2)C/C=C(/C)CCC[C@H](C)[C@@H]1O` [Epothilone K, (4S,7R,8S,9S,13(Z),16S(E))-4,8-Dihydroxy-16-(1-methyl-2-(2-methylthiazol-4-yl)ethenyl)-1-oxa-5,5,9,13-tetramethyl-7-(prop-2-en-1-yl)-cyclohexadec-13-ene-2,6-dione]: the “Relative animal weights (in words)” value in series [1] (mouse, in vivo, iv) is given as “small weight loss”. Besides, the “Relative tumor surface area” value in the series on A549 lung tumors (setting [3]) is 1.1 ± 0.1; in the series with A549 lung tumors (setting [5]) it was 1.3 ± 0.3 and 1.3 ± 0.1; in the series with A549 lung tumors (setting [7]), 1.5 ± 0.2; with A549 lung tumors (setting [9]) it was 1.6 ± 0.1 and 1.5 ± 0.2.
Turning to `C#CCC[C@H]1C(=O)C(C)(C)[C@@H](O)CC(=O)O[C@H](/C(C)=C/c2ccccn2)C/C=C(/C)CCC[C@H](C)[C@@H]1O` [Epothilone I, (4S,7R,8S,9S,13(Z),16S(E))-4,8-Dihydroxy-16-(1-methyl-2-(2-pyridyl)ethenyl)-1-oxa-5,5,9,13-tetramethyl-7-(but-3-in-1-yl)-cyclohexadec-13-ene-2,6-dione], the Relative animal weights in series [1] (setting [2]) came to 0.93; in series [1] (setting [4]) it was 0.97; in series [1] (setting [6]), 0.97; in series [1] (setting [8]), 0.98. For the same compound, the “Relative animal weights (in words)” value in series [1] (setting [10]) is “small weight loss”. Also, the “Relative tumor surface area” value in the series with A549 lung tumors (setting [2]) was 1.2 ± 0.1; in the series on A549 lung tumors (setting [4]), 1.3 ± 0.3; in the series with A549 lung tumors (setting [6]) it was 1.4 ± 0.3; with A549 lung tumors (setting [8]), 1.5 ± 0.1.
In the case of `C=CC[C@H]1C(=O)C(C)(C)[C@@H](O)CC(=O)O[C@H](c2ccc3sc(C)nc3c2)C[C@@H]2O[C@]2(C)CCC[C@H](C)[C@@H]1O` [Epothilone F, (1S,3S,7S,10R,11S,12S,16R)-7,11-Dihydroxy-3-(2-methylbenzothiazol-5-yl)-10-(prop-2-en-1-yl)-8,8,12,16-tetramethyl-4,17-dioxabicyclo[14.1.0]heptadecane-5,9-dione], the Relative animal weights in series [1] (setting [2]) turned out to be 0.94; in series [1] (setting [3]), 0.92; in series [1] (setting [4]), 0.97; in series [1] (setting [5]), 0.93; in series [1] (setting [6]) it was 0.97; in series [1] (setting [7]), 0.97. Moreover, the results for the Relative animal weights in series [1] (setting [8]) and in series [1] (setting [9]) were 0.96 and 0.99, respectively. Further, the “Relative animal weights (in words)” value in series [1] (setting [10]) and in series [1] (setting [11]) was “small weight loss” each time. In addition, the “Relative tumor surface area” value is listed as 1.1 ± 0.1 in the series on A549 lung tumors (setting [2]); 1.1 ± 0.1 with A549 lung tumors (setting [3]); 1.3 ± 0.2 in the series on A549 lung tumors (setting [4]); 1.2 ± 0.2 in the series on A549 lung tumors (setting [5]); 1.5 ± 0.3 in the series on A549 lung tumors (setting [6]); 1.4 ± 0.1 with A549 lung tumors (setting [7]). Also, the “Relative tumor surface area” value in the series with A549 lung tumors (setting [8]) is 1.5 ± 0.4; with A549 lung tumors (setting [9]) it was 1.5 ± 0.2.
